pIC50: −log10 of the molar value.
Key:
MGC-803 = assay: cells; assay type: functional, cell-based; conditions: Homo sapiens, MGC-803, 72 h
Description: Antiproliferative activity against human MGC803 cells incubated for 72 hrs by MTT assay

Histone deacetylase 2 = Histone deacetylase 2 (Homo sapiens, UniProt Q92769)
Description: Inhibition of C-terminal His-tagged full length human HDAC2 expressed in baculovirus expression system using Ac-peptide substrate incubated for 15 mins by fluorescence based assay

PC-3 = assay: cells; assay type: functional, cell-based; conditions: Homo sapiens, PC-3, 72 h
Description: Antiproliferative activity against human PC3 cells incubated for 72 hrs by MTT assay

[1] = molecular target: T1, Amine oxidase [flavin-containing] A (Homo sapiens, UniProt P21397)
T1 sequence (P21397 whole entry): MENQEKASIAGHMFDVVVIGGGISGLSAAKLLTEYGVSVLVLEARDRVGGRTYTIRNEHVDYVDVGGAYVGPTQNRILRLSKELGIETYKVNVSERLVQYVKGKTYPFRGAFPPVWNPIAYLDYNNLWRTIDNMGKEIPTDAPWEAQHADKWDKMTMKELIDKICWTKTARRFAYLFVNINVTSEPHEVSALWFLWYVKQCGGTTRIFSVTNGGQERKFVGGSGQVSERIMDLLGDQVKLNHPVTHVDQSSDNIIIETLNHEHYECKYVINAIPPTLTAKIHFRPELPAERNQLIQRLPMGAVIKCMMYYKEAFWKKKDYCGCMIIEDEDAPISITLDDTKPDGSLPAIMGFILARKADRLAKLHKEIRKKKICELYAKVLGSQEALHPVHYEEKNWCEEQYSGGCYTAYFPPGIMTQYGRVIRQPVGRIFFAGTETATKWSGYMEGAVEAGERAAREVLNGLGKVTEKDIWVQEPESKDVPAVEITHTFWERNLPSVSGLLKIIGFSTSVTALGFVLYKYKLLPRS
Description: Inhibition of MAOA (unknown origin) using beetle luciferin as substrate by MAO-Glo assay

[2] = molecular target: T2, Amine oxidase [flavin-containing] B (Homo sapiens, UniProt P27338)
T2 sequence (P27338 whole entry): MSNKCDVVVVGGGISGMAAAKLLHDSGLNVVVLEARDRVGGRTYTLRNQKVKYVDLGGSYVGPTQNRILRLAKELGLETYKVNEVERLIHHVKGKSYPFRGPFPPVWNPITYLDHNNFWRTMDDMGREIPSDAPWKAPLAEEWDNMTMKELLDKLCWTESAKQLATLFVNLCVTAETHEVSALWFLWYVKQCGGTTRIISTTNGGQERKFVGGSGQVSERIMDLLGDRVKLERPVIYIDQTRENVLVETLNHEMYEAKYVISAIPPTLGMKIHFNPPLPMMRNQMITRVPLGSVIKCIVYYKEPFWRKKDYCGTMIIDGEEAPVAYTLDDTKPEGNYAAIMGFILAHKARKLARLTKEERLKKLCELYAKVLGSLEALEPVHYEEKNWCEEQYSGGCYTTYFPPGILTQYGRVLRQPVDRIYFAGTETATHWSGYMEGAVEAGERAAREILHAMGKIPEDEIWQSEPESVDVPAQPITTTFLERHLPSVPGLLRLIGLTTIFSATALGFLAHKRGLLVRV
Description: Inhibition of MAOB (unknown origin) using beetle luciferin as substrate by MAO-Glo assay

[3] = molecular target: Lysine-specific histone demethylase 1A (Homo sapiens, UniProt O60341)
Description: Inhibition of recombinant LSD1 (157 to 852 amino acids) (unknown origin) expressed in Escherichia coli BL21(DE) using H3K4me2 substrate by amplex red and horseradish peroxidase based fluorescence assay

SW-620 = assay: cells; assay type: functional, cell-based; conditions: Homo sapiens, SW-620, 72 h
Description: Antiproliferative activity against human SW620 cells incubated for 72 hrs by MTT assay

Histone deacetylase 1 = Histone deacetylase 1 (Homo sapiens, UniProt Q13547); assay: Inhibition of C-terminal His-tagged and C-terminal FLAG-tagged human HDAC1 expressed in baculovirus expression system using Ac-peptide substrate incubated for 15 mins by fluorescence based assay
A549 = assay: cells; assay type: functional, cell-based; conditions: Homo sapiens, A549, 72 h
Description: Antiproliferative activity against human A549 cells incubated for 72 hrs by MTT assay

Histone deacetylase 5 = Histone deacetylase 5 (Homo sapiens, UniProt Q9UQL6); assay: Inhibition of C-terminal His-tagged human HDAC5 (656-1122 residues) expressed in baculovirus expression system using Ac-peptide substrate incubated for 15 mins by fluorescence based assay
MCF7 = assay: cells; assay type: functional, cell-based; conditions: Homo sapiens, MCF7, 72 h
Description: Antiproliferative activity against human MCF7 cells incubated for 72 hrs by MTT assay

Chain of Histone deacetylase 2 (Q92769 whole entry): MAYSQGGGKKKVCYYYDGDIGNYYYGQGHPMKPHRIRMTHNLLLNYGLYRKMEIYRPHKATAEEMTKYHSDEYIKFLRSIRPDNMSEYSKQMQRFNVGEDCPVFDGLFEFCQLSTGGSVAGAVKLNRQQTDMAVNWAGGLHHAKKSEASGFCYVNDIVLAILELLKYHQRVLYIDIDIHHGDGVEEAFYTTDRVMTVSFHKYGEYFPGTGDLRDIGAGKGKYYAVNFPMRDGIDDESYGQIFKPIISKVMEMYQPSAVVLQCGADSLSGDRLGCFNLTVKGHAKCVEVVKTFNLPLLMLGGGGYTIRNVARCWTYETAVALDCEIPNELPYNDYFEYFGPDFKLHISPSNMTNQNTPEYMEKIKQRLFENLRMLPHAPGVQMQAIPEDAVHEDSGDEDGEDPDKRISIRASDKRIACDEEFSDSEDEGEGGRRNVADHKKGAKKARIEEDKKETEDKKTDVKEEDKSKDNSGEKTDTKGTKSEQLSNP
Chain of Histone deacetylase 1 (Q13547 whole entry): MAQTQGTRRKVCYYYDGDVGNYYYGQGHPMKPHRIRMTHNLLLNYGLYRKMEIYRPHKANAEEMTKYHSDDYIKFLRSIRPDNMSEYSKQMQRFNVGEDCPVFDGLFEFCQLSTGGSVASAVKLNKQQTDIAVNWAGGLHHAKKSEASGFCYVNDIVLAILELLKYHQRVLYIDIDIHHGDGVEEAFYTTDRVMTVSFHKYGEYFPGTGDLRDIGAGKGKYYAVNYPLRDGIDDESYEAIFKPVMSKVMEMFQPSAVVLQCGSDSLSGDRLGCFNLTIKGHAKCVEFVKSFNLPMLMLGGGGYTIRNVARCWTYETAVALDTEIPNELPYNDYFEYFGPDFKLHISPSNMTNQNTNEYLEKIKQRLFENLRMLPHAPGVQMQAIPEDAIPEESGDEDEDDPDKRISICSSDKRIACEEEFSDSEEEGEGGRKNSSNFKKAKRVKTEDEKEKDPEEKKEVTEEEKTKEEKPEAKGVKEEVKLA
Chain of Histone deacetylase 5 (Q9UQL6 whole entry, the tested form may be a part): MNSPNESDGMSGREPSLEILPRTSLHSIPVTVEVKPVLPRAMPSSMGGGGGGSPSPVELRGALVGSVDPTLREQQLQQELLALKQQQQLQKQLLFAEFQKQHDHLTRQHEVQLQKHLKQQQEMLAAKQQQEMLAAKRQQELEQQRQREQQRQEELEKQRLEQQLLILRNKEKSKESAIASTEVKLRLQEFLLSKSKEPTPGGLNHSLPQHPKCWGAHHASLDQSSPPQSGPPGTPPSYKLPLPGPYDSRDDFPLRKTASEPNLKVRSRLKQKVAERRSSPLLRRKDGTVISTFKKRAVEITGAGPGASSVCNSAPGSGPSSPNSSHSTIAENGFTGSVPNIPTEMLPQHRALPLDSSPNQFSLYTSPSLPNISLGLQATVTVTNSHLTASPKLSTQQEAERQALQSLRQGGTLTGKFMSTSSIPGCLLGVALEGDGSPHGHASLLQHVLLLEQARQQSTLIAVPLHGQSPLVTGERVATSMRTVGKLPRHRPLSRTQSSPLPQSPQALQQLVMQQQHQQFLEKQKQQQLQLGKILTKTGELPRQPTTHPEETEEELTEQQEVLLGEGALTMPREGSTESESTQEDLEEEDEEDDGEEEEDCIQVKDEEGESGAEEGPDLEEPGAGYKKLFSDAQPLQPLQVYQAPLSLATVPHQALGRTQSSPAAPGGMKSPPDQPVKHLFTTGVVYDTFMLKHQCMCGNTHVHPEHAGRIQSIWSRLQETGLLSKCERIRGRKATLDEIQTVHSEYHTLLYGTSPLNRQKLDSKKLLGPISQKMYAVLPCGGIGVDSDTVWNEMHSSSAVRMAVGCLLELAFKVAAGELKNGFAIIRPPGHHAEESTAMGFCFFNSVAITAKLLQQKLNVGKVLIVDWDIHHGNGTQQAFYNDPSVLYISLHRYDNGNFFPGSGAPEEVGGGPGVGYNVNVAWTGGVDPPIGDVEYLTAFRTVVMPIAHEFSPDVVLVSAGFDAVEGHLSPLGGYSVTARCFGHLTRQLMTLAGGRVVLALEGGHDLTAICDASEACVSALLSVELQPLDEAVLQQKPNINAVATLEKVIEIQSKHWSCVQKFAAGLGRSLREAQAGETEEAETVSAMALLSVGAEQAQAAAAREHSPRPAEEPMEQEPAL

pIC50 (MGC-803): 4.92 | pIC50 (Histone deacetylase 2): 5.51 | pIC50 (PC-3): 4.70 | pIC50 [1]: 4.34 | pIC50 [2]: < 4.00 | pIC50 [3]: 5.39 | pIC50 (SW-620): 4.63 | pIC50 (Histone deacetylase 1): 5.84 | pIC50 (A549): 5.17 | IC50 (Histone deacetylase 5): Not Active | pIC50 (MCF7): 4.76
SMILES: O=C(NO)c1ccc(CNC2CC2c2ccccc2)cc1 (stereo unspecified)

From ChEMBL document CHEMBL4130471, “Design and synthesis of tranylcypromine derivatives as novel LSD1/HDACs dual inhibitors for cancer treatment” (Eur J Med Chem, 2017)
